Laboratory results as given in a compilation of properties of binary mixtures (doi:10.1016/j.jct.2022.106970).

Assay: xn = mol fraction of the nth substance listed
Conditions: 92.3 kPa

CCO + CCCC[NH3+].O=C[O-]
x2 = 0
Conditions | speed of sound [m/s] | viscosity [mPa·s]
293.15 K | 1160.1 | 1.238
298.15 K | 1142.9 | 1.092
308.15 K | 1109 | 0.912
313.15 K | 1092.3 | 0.836

CCCC[NH3+].O=C[O-] + CCO
Conditions | speed of sound, 293.15 K [m/s] | speed of sound, 298.15 K [m/s] | speed of sound, 303.15 K [m/s] | speed of sound, 308.15 K [m/s] | speed of sound, 313.15 K [m/s] | viscosity, 293.15 K [mPa·s] | viscosity, 298.15 K [mPa·s] | viscosity, 303.15 K [mPa·s] | viscosity, 308.15 K [mPa·s] | viscosity, 313.15 K [mPa·s]
x1 = 0.0484 | 1197.4 | 1180.8 | 1164.2 | 1147.9 | 1131.6 | 1.91 | 1.672 | 1.512 | 1.37 | 1.247
x1 = 0.1038 | 1232 | 1215.9 | 1199.9 | 1184 | 1168.2 | 2.85 | 2.5 | 2.26 | 2.04 | 1.845
x1 = 0.1507 | – | 1242.7 | 1227 | 1211.4 | 1196 | – | 3.44 | 3.07 | 2.76 | 2.49
x1 = 0.2004 | 1283.9 | – | 1253.1 | – | 1222.7 | 5.28 | – | 4.15 | – | 3.33
x1 = 0.2564 | 1310.4 | 1295.2 | – | – | 1250.5 | 7.29 | 6.4 | – | – | 4.54
x1 = 0.2938 | 1326.3 | 1311.4 | 1296.6 | 1281.9 | 1267.4 | 9 | 7.92 | 6.99 | 6.2 | 5.53
x1 = 0.355 | 1350.5 | 1336 | – | – | 1292.9 | 12.31 | 10.71 | – | – | 7.3
x1 = 0.3886 | – | 1348.5 | 1334.2 | 1320 | – | – | 12.67 | 11.04 | 9.68 | –
x1 = 0.4521 | 1384.5 | 1370.5 | – | – | 1328.9 | 19.7 | 16.96 | – | – | 11.16
x1 = 0.5005 | 1399.2 | 1385.4 | – | 1358.1 | 1344.6 | 24.9 | 21.3 | – | 15.84 | 13.79
x1 = 0.5487 | 1413.1 | 1399.5 | 1386 | 1372.7 | 1359.4 | 30.5 | 25.8 | 22 | 18.89 | 16.39
x1 = 0.5982 | 1426.3 | 1412.9 | – | 1386.5 | 1373.5 | 37.6 | 31.7 | – | 23.1 | 19.7
x1 = 0.6393 | 1436.7 | 1423.5 | 1410.4 | – | 1384.7 | 44.9 | 37.5 | 31.5 | – | 23
x1 = 0.6993 | 1450.9 | 1437.9 | 1425.1 | – | 1399.8 | 57.4 | 47.4 | 39.5 | – | 28.3
x1 = 0.749 | 1462.1 | 1449.3 | 1436.6 | 1424.1 | 1411.7 | 70.3 | 57.5 | 47.7 | 39.9 | 33.8
x1 = 0.7972 | – | 1459.5 | 1447 | 1434.7 | 1422.5 | – | 69.5 | 57.1 | 47.4 | 39.8
x1 = 0.8487 | 1482 | – | 1457.2 | 1445.1 | 1433.2 | 103.8 | – | 68.4 | 56.6 | 47.2
x1 = 0.8993 | 1491.4 | 1479.1 | 1467 | 1455 | 1443.2 | 126.4 | 101.1 | 81.9 | 67.2 | 55.7
x1 = 0.9444 | – | – | 1475.2 | 1463.4 | 1451.8 | – | – | 95.8 | 78.1 | 64.4
x1 = 1 | 1508.6 | 1496.5 | 1484.7 | 1473.1 | 1461.7 | 182.3 | 143.6 | 114.7 | 92.7 | 76.1
